{
  "source": "paper PMC12311725",
  "about": "“Identification of Ginsentide-like Peptides from Cacao Beans with Oxidative Stress Protection” (ACS Omega, 2025)",
  "key": {"HaCaT keratinocytes": {"test_system": "HaCaT keratinocytes", "assay": "Live-cell confocal microscopy of internalization", "type": "cell-based, human", "settings": "1 μM, 37 °C, 1 h, Z-stack confocal fluorescence", "description": "HaCaT (human keratinocyte) cells were cultured in Dulbecco’s modification of Eagle’s medium (DMEM) supplemented with 10% fetal bovine serum and 100 U/mL penicillin and streptomycin. They were grown in a 5% CO2 humidified incubator at 37 °C\nTo examine the internalization of FAM-tC1 in living cells, the cells were seeded on an 8-well chamber slide (Ibidi). Prior to incubation with FAM-tC1, the cells were stained with […]. FAM-tC1 was incubated on cells in phenol red-free and serum-free medium for 1 h at 37 °C. The slides were washed gently with PBS three times, and the medium was replaced prior to imaging. The slides were observed by using a Zeiss LSM 980 confocal microscope.\n8 Confocal image of fluorescent labeled FAM-tC1 in HaCaT keratinocytes. (A) 1 μM FAM-tC1 was incubated with HaCaT keratinocytes at 37 °C for 1 h, and Z-stack confocal analysis was performed. Green: FAM-tC1; Blue: Nucleus. The red outline indicates the region of interest (ROI) which is presented as a 3D-rendered Z-stack image on the right. (B) Fluorescence intensity line profiles measured across the ROI at three representative z-depths (bottom, middle, and top slice)."}, "pepsin": {"test_system": "pepsin", "assay": "Peptide stability assay with pepsin (RP-HPLC)", "type": "in vitro ADME", "settings": "pepsin 50:1 (w/v) in 0.2 M HCl, 37 °C, 6 h; peptide 0.1 M [sic]; RP-HPLC peak area as % of initial", "description": "(§1) Stability studies were conducted using purified cocotide tC1 (0.1 M) and S-alkylated tC1 (iodoacetamido) under specific buffer conditions. Pepsin stability was assessed by incubating the samples in a mixture of pepsin at a ratio of 50:1 (w/v) in 0.2 M HCl at 37 °C. For trypsin stability, the samples were treated with trypsin in 0.1 M ammonium bicarbonate buffer (pH 8) at 37 °C. Analysis of stability assays involved collecting samples at various time points, which were then analyzed by reversed-phase high-performance liquid chromatography (RP-HPLC) using a linear gradient of mobile phase A (0.05% trifluoroacetic acid in water) and mobile phase B (0.05% trifluoroacetic acid in acetonitrile) on an Aeris Peptide XB-C18 column (Phenomenex). The stability results were expressed as a percentage of the initial concentration and determined by the peak area of the HPLC profile.\n(§2) 7 Proteolytic stability assays of cocotide tC1. Cocotide tC1 was incubated with either pepsin or trypsin at 37 °C for up to 6 h. S-alkylated tC1 was used as the control. At different time points, samples of cocotide tC1 and the control were quantified using reversed-phase high pressure liquid chromatography (RP-HPLC). The relative peak areas of the RP-HPLC profiles were used to quantify the percentage of peptides remaining after incubation with pepsin or trypsin."}, "trypsin": {"test_system": "trypsin", "assay": "Peptide stability assay with trypsin (RP-HPLC)", "type": "in vitro ADME", "settings": "trypsin in 0.1 M ammonium bicarbonate buffer pH 8, 37 °C, 6 h; peptide 0.1 M [sic]; RP-HPLC peak area as % of initial", "description": "as §1, §2"}, "[1]": {"assay": "Ferric Reducing Antioxidant Power (FRAP) assay", "settings": "OxiSelect FRAP Assay Kit", "description": "OxiSelect Ferric Reducing Antioxidant Power (FRAP) Assay Kit (Cell Biolabs, USA) was used to measure the antioxidant potential of cocotide tC1. The assay was performed according to the manufacturer’s instructions ."}, "[2]": {"assay": "Post-translational modification analysis of methionine oxidation (tims-TOF MS/MS)", "type": "physicochemical", "settings": "native peptide from aqueous extract", "description": "The primary sequences of cocotides from Theobroma cacao aqueous extracts were determined by LC-MS/MS sequencing as described previously. The C18-SPE fractionated Theobroma cacao aqueous extracts were redissolved in 20 mM DTT at 37 °C for 1 h followed by S-alkylation with 200 mM iodoacetamide at 37 °C for 1 h. The mixture was desalted with a C18 Zip-tip and subjected to analysis on a trapped ion mobility spectrometer-time-of-flight tandem mass spectrometer (tims-TOF MS/MS). Data analysis was performed using PEAKS Studio (version 11, Bioinformatics Solutions, Waterloo, ON, Canada) with a precursor ion tolerance of 10 ppm and a fragment ion tolerance of 0.05 Da. Carbamidomethylation at Cys was set as a fixed modification. Deamidation of […], oxidation of Met, and acetylation at Lys and N-term were set as variable modification. Peptide sequencing was performed using PEAKS DB protein identification, which integrates database search of an in-house ginsentide-like peptide library derived from Theobroma cacao transcriptome with de novo sequencing."}},
  "note": "Where a SMILES comes first, the peptide text is derived from it. Bridges are numbered along the chain shown (N, C = ends). Where no end group is shown, it is not given here. The star is where a group is joined. 5FAM = O=C1OC2(c3ccc(O)cc3Oc3cc(O)ccc32)c2ccc(C(=O)*)cc21; Cam = NC(=O)C*",
  "data": [
    {"compound": "CC[C@H](C)[C@@H]1NC(=O)CNC(=O)[C@H](CCSC)NC(=O)[C@@H]2CCCN2C(=O)[C@H](Cc2ccc(O)cc2)NC(=O)[C@H](CC(C)C)NC(=O)[C@@H]2CSSC[C@@H]3NC(=O)[C@H](Cc4ccccc4)NC(=O)CNC(=O)CNC(=O)[C@H](C)NC(=O)[C@H](CO)NC(=O)[C@H](CC(C)C)NC(=O)[C@@H](NC(=O)[C@@H](N)CCCCNC(=O)c4ccc5c(c4)C(=O)OC54c5ccc(O)cc5Oc5cc(O)ccc54)CSSC[C@@H]4NC(=O)[C@H](CSSC[C@H](NC1=O)C(=O)N[C@@H](Cc1ccc(O)cc1)C(=O)NCC(=O)N[C@@H](CO)C(=O)NCC(=O)N[C@H](C(=O)O)CSSC[C@H](NC(=O)[C@H](CC(N)=O)NC(=O)CNC4=O)C(=O)NCC(=O)N2)NC(=O)[C@H](CC(=O)O)NC(=O)[C@H](CCSC)NC(=O)[C@@H]1CCCN1C(=O)[C@H](CC(N)=O)NC(=O)[C@H](Cc1ccccc1)NC(=O)[C@H](CCSC)NC3=O", "note": "[FAM-tC1] (H-K(5FAM)CLSAGGFCMFNPMDCCGNCGCLYPMGICYGSGC-OH; disulfide 2-17, 9-22, 16-29, 20-34)", "values": [
      {"measurement": "fluorescent signal in the nucleus", "setting": "HaCaT keratinocytes", "result": "no fluorescent signals were detected in the nucleus"},
      {"measurement": "cell penetration (internalization)", "setting": "HaCaT keratinocytes; serum-free medium", "result": "readily penetrates the cells"}
    ]},
    {"compound": "CC[C@H](C)[C@H](NC(=O)CNC(=O)[C@H](CCSC)NC(=O)[C@@H]1CCCN1C(=O)[C@H](Cc1ccc(O)cc1)NC(=O)[C@H](CC(C)C)NC(=O)[C@H](CSCC(N)=O)NC(=O)CNC(=O)[C@H](CSCC(N)=O)NC(=O)[C@H](CC(N)=O)NC(=O)CNC(=O)[C@H](CSCC(N)=O)NC(=O)[C@H](CSCC(N)=O)NC(=O)[C@H](CC(=O)O)NC(=O)[C@H](CCSC)NC(=O)[C@@H]1CCCN1C(=O)[C@H](CC(N)=O)NC(=O)[C@H](Cc1ccccc1)NC(=O)[C@H](CCSC)NC(=O)[C@H](CSCC(N)=O)NC(=O)[C@H](Cc1ccccc1)NC(=O)CNC(=O)CNC(=O)[C@H](C)NC(=O)[C@H](CO)NC(=O)[C@H](CC(C)C)NC(=O)[C@@H](N)CSCC(N)=O)C(=O)N[C@@H](CSCC(N)=O)C(=O)N[C@@H](Cc1ccc(O)cc1)C(=O)NCC(=O)N[C@@H](CO)C(=O)NCC(=O)N[C@@H](CSCC(N)=O)C(=O)O", "note": "[S-alkylated cocotide tC1, reference compound] (H-C(Cam)LSAGGFC(Cam)MFNPMDC(Cam)C(Cam)GNC(Cam)GC(Cam)LYPMGIC(Cam)YGSGC(Cam)-OH)", "values": [
      {"measurement": "structural integrity retained (percentage of peptide remaining) after incubation with pepsin", "setting": "pepsin", "result": "degraded rapidly"},
      {"measurement": "structural integrity retained (percentage of peptide remaining) after incubation with trypsin", "setting": "trypsin", "result": "degraded rapidly"}
    ]},
    {"compound": "O=C1O[C@H]([C@@H](O)CO)C(O)=C1O", "note": "[ascorbic acid, reference compound]", "values": [
      {"measurement": "FRAP value", "setting": "[1]", "result": 0.36, "unit": "Fe^2+ μM/μM"}
    ]},
    {"compound": "CLSAGGFCMFIPMDCCGNCGCLFPMGFCYGSGC (disulfide (positions not given here)) [cocotide tC2, ginsentide-like cysteine-rich peptide found in T. cacao aqueous extract]", "values": [
      {"measurement": "methionine oxidation pattern", "setting": "[2]", "result": "Met9 was more prone to oxidation than Met13"}
    ]},
    {"compound": "CLSAGGFCVFNPMDCCGNCGCLYPMGICYGSGC (disulfide (positions not given here)) [cocotide tC7, ginsentide-like cysteine-rich peptide found in T. cacao aqueous extract]", "values": [
      {"measurement": "methionine oxidation pattern", "setting": "[2]", "result": "minimal oxidation"}
    ]}
  ]
}
